We go through one compound from ChEMBL document CHEMBL1136703, “Leporin B: a novel hexokinase II gene inducing agent from an unidentified fungus” (Bioorg Med Chem Lett, 2003).

As usually defined, the IC50 is the point on the concentration scale where inhibition reaches its midpoint. The low end stands for inhibition by little substance, the high end for a need for much substance.

This assay deals with L6. Put plainly: Inhibitory concentration against induction of Hexokinase II-luci signal in the reporter cell line. The class given is functional, cell-based. Particulars: Rattus norvegicus.

As for `C/C=C/C1Oc2c(-c3ccccc3)cn(O)c(=O)c2C2C(C)CCCC12` (stereo unspecified), the IC50 was determined as 10 µM.
